The values that follow come from ChEMBL document CHEMBL5331083, “Targeting ferroptosis: Paving new roads for drug design and discovery” (Eur J Med Chem, 2023).

pEC50, pIC50: −log10 of the molar value.

By pIC50 is commonly meant the negative decadic logarithm of the IC50, by convention in mol/L. A higher pIC50 goes with a low IC50. Usually pEC50 stands for the negative decadic logarithm of the EC50, by convention in mol/L. A high value points to a low EC50.

What all share (format): functional, cell-based
The nature of test [1]: Inhibition of ferroptosis in tamoxifen induced Gpx4-/- mouse MEF cells.
Test [2] can be described thus: Inhibition of erastin-induced cell death in human HT-1080 cells.
Another test has as its system MCF7. Put plainly: Cytotoxicity against human MCF7 cells incubated for 48 hrs by MTT assay. The settings on record: MCF7, 48 h. Background: Tetrazolium dyes change colour on reduction, which living cells bring about.
Test [3] deals with HT-22. Put plainly: Inhibition of erastin-induced ferroptosis in mouse HT-22 cells incubated for 24 hrs by MTT assay. The note with it: HT-22, 24 h.
Test [4] concerns HT-22. Put plainly: Inhibition of RSL3-induced ferroptosis in mouse HT-22 cells incubated for 24 hrs by MTT assay. The settings on record: HT-22, 24 h.

As for `Clc1cccc(CNC2=Nc3ccccc3NC23CCNCC3)c1`, in test [1], the pIC50 is 7.66.

`CCOC(=O)c1ccc(NC2CCCCC2)c(N)c1` showed a pIC50 in test [2] of 7.02. `CCOC(=O)c1ccc(NC2CCCCC2)c(NCc2ccccc2)c1` showed a pIC50 in test [2] of 8.22.

In the test with MCF7, `COc1cc(O)c2c(=O)cc(-c3ccc(O)c(-c4c(O)cc5oc(-c6ccc(O)cc6)cc(=O)c5c4OC)c3)oc2c1` showed a pIC50 of 4.92. As to `CCO[C@@H]1C[C@@H]2C[C@@H]([C@@]3(C)[C@H](C)C[C@H](OC(C)=O)[C@]4(COC(C)=O)[C@@H]3CC[C@H](OC(=O)C(C)CC)[C@]43CO3)O[C@@H]2O1` (stereo partly specified), the pEC50 was 5.39 in the test with HT-22 [3] and 5.44 with HT-22 [4].
